Results taken from PubChem BioAssay (NCI).
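Growth conditions: 96-well plates. Treatment: test compound, 48 hours, 5 concentrations. Analysis: linear interpolation between bracketing concentrations; unreached endpoints set to highest concentration. TGI: total growth inhibition.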

What was measured:
Assay in all cases: NCI tumour cell line growth inhibition, 48 h
SN12C renal = tested on: SN12C renal
SR leukemia = tested on: SR leukemia
SK-MEL-5 melanoma = tested on: SK-MEL-5 melanoma
SNB-75 CNS = tested on: SNB-75 CNS
EKVX NSCLC = tested on: EKVX NSCLC
COLO 205 colon = tested on: COLO 205 colon
SF-539 CNS = tested on: SF-539 CNS
SW-620 colon = tested on: SW-620 colon
U251 CNS = tested on: U251 CNS
HCT-116 colon = tested on: HCT-116 colon
OVCAR-8 ovarian = tested on: OVCAR-8 ovarian
A498 renal = tested on: A498 renal
UACC-257 melanoma = tested on: UACC-257 melanoma
CAKI-1 renal = tested on: CAKI-1 renal
OVCAR-5 ovarian = tested on: OVCAR-5 ovarian
HOP-62 NSCLC = tested on: HOP-62 NSCLC
SK-MEL-28 melanoma = tested on: SK-MEL-28 melanoma

SMILES | TGI (SN12C renal) | TGI (SR leukemia) | TGI (SK-MEL-5 melanoma) | TGI (SNB-75 CNS) | TGI (EKVX NSCLC) | TGI (COLO 205 colon) | TGI (SF-539 CNS) | TGI (SW-620 colon) | TGI (U251 CNS) | TGI (HCT-116 colon) | TGI (OVCAR-8 ovarian) | TGI (A498 renal) | TGI (UACC-257 melanoma) | TGI (CAKI-1 renal) | TGI (OVCAR-5 ovarian) | TGI (HOP-62 NSCLC) | TGI (SK-MEL-28 melanoma)
N#Cc1ccc(/C=C(/C(=O)c2ccccc2)c2ccccc2)cc1 | 25 µM | 8.4 µM | 26.8 µM | > 57.2 µM | 42.9 µM | 37.3 µM | 42 µM | 7.31 µM | 25 µM | 11.3 µM | 22.1 µM | 40 µM | 29.6 µM | 32.1 µM | 35.4 µM | 40.2 µM | 32.7 µM
O=c1[nH]c2cc([N+](=O)[O-])ccc2nc1/C(=N/Nc1ccccc1)C(O)c1ccco1 (stereo unspecified) | > 100 µM | > 100 µM | > 100 µM | > 100 µM | > 100 µM | > 100 µM | > 100 µM | > 100 µM | > 100 µM | > 100 µM | > 100 µM | > 100 µM | > 100 µM | > 100 µM | – | > 100 µM | –
C/C(=N\NC(=O)C[N+](C)(C)C)c1sc(-c2cccnc2)nc1C | – | – | > 100 µM | > 100 µM | > 100 µM | > 100 µM | > 100 µM | > 100 µM | > 100 µM | > 100 µM | > 100 µM | – | > 100 µM | – | > 100 µM | > 100 µM | > 100 µM
O=C1N2Cc3c4ccc5c3CN3C(=O)N6Cc7c(ccc(c7CN1C6(c1ccccc1)C23c1ccccc1)OCCOCCOc1cc(Br)c(Br)cc1OCCOCCO4)OCCOCCOc1cc(Br)c(Br)cc1OCCOCCO5 (stereo unspecified) | > 100 µM | > 100 µM | > 100 µM | > 100 µM | > 100 µM | – | 37.9 µM | 28.3 µM | > 100 µM | > 100 µM | > 100 µM | – | > 100 µM | > 100 µM | – | > 100 µM | > 100 µM
O=C(Cc1nc2sc3c(c2c(=O)[nH]1)CCCC3)Nc1ccccc1 | > 100 µM | – | > 100 µM | 53.6 µM | > 100 µM | > 100 µM | > 100 µM | > 100 µM | > 100 µM | > 100 µM | > 100 µM | > 100 µM | – | > 100 µM | > 100 µM | > 100 µM | > 100 µM
N#COc1ccc(Oc2ccccc2)cc1 | > 100 µM | 50 µM | > 100 µM | > 100 µM | > 100 µM | > 100 µM | 92.4 µM | – | > 100 µM | > 100 µM | > 100 µM | > 100 µM | > 100 µM | > 100 µM | > 100 µM | > 100 µM | > 100 µM
CC(C)(C)C1CCC2c3c([nH]c4ncccc34)C3C(=O)N(c4ccccc4)C(=O)C3C2C1 (stereo unspecified) | > 100 µM | > 100 µM | > 100 µM | > 100 µM | > 100 µM | > 100 µM | > 100 µM | > 100 µM | > 100 µM | > 100 µM | > 100 µM | – | > 100 µM | > 100 µM | > 100 µM | > 100 µM | > 100 µM
O=C(c1ccco1)N(C(=S)N1CCN(c2ccccc2)CC1)C1CCCCC1 | > 100 µM | > 100 µM | > 100 µM | > 100 µM | – | > 100 µM | > 100 µM | > 100 µM | > 100 µM | > 100 µM | > 100 µM | – | > 100 µM | > 100 µM | > 100 µM | > 100 µM | –
COc1ccc2c3c([nH]c(=O)c2c1C(=O)O)-c1ccccc1CC3 | > 100 µM | > 100 µM | > 100 µM | > 100 µM | > 100 µM | > 100 µM | > 100 µM | > 100 µM | > 100 µM | > 100 µM | – | > 100 µM | – | > 100 µM | > 100 µM | > 100 µM | > 100 µM
CCO/S(=N/S(=O)(=O)c1ccccc1)c1ccccc1[N+](=O)[O-] (stereo unspecified) | > 100 µM | > 100 µM | > 100 µM | > 100 µM | > 100 µM | > 100 µM | > 100 µM | > 100 µM | > 100 µM | – | > 100 µM | – | > 100 µM | > 100 µM | > 100 µM | > 100 µM | > 100 µM
N#C/C(c1nc2ccccc2[nH]1)=c1\s/c(=C(/N)O)c(=N)n1-c1ccccc1 | > 100 µM | – | > 100 µM | > 100 µM | > 100 µM | > 100 µM | > 100 µM | > 100 µM | > 100 µM | > 100 µM | > 100 µM | > 100 µM | > 100 µM | > 100 µM | > 100 µM | > 100 µM | > 100 µM
Cc1ccc(S(=O)(=O)N/N=C(\c2nc3ccc([N+](=O)[O-])cc3[nH]c2=O)C(O)c2ccc([N+](=O)[O-])cc2)cc1 (stereo unspecified) | > 100 µM | – | > 100 µM | > 100 µM | > 100 µM | > 100 µM | > 100 µM | > 100 µM | > 100 µM | – | > 100 µM | > 100 µM | > 100 µM | > 100 µM | > 100 µM | > 100 µM | > 100 µM
